Assay results reported in BigSolDB 2.1.

O=C(O)c1cc2ccccc2[nH]1
Conditions | solubility (mole fraction)
in 1,4-dioxane, 286.35 K | 0.00276
in 1,4-dioxane, 291.25 K | 0.00343
in 1,4-dioxane, 297.05 K | 0.00427
in 1,4-dioxane, 301.95 K | 0.00476
in 1,4-dioxane, 306.95 K | 0.0052
in 1,4-dioxane, 312.15 K | 0.00592
in 1,4-dioxane, 317.25 K | 0.00636
in 1,4-dioxane, 321.65 K | 0.00689
in 1,4-dioxane, 326.55 K | 0.00728
in 1,4-dioxane, 331.95 K | 0.00791
in 1,4-dioxane, 336.65 K | 0.00866
in dichloromethane, 283.15 K | 0.000684
in dichloromethane, 287.15 K | 0.000724
in dichloromethane, 292.75 K | 0.000873
in dichloromethane, 295.65 K | 0.00104
in dichloromethane, 299.05 K | 0.00119
in dichloromethane, 302.65 K | 0.00134
in dichloromethane, 307.25 K | 0.00168
in dichloromethane, 313.15 K | 0.00224
in ethanol, 278.15 K | 0.0569
in ethanol, 283.15 K | 0.062
in ethanol, 287.95 K | 0.0666
in ethanol, 292.75 K | 0.0701
in ethanol, 297.95 K | 0.078
in ethanol, 303.05 K | 0.0816
in ethanol, 308.35 K | 0.0881
in ethanol, 313.25 K | 0.0974
in ethanol, 318.65 K | 0.102
in ethanol, 324.95 K | 0.116
in ethanol, 329.85 K | 0.12
in ethanol, 336.25 K | 0.135
in ethanol, 342.75 K | 0.148
in ethanol, 348.25 K | 0.154
in ethanol, 353.15 K | 0.165
in ethyl acetate, 284.05 K | 0.0433
in ethyl acetate, 290.45 K | 0.06
in ethyl acetate, 294.65 K | 0.0735
in ethyl acetate, 299.55 K | 0.0865
in ethyl acetate, 304.65 K | 0.1
in ethyl acetate, 309.35 K | 0.108
in ethyl acetate, 313.95 K | 0.116
in ethyl acetate, 318.65 K | 0.121
in ethyl acetate, 324.35 K | 0.128
in ethyl acetate, 328.75 K | 0.134
in ethyl acetate, 333.65 K | 0.14
in isopropanol, 278.35 K | 0.0412
in isopropanol, 285.15 K | 0.0525
in isopropanol, 291.05 K | 0.0606
in isopropanol, 298.15 K | 0.0701
in isopropanol, 305.55 K | 0.0855
in isopropanol, 310.15 K | 0.0949
in isopropanol, 315.75 K | 0.108
in isopropanol, 321.35 K | 0.119
in isopropanol, 328.65 K | 0.131
in isopropanol, 333.35 K | 0.149
in isopropanol, 338.75 K | 0.161
in isopropanol, 342.25 K | 0.171
in isopropanol, 348.15 K | 0.191
in isopropanol, 353.25 K | 0.201
in isopropanol, 358.15 K | 0.219
in methanol, 278.15 K | 0.0679
in methanol, 283.35 K | 0.0695
in methanol, 288.95 K | 0.0723
in methanol, 293.25 K | 0.0752
in methanol, 298.15 K | 0.0856
in methanol, 303.35 K | 0.0925
in methanol, 307.85 K | 0.102
in methanol, 312.95 K | 0.118
in methanol, 317.75 K | 0.135
in methanol, 323.15 K | 0.159
in methanol, 328.25 K | 0.189
in methanol, 333.15 K | 0.23
in n-butanol, 278.15 K | 0.0478
in n-butanol, 285.35 K | 0.0538
in n-butanol, 291.05 K | 0.0605
in n-butanol, 298.55 K | 0.0687
in n-butanol, 305.25 K | 0.0758
in n-butanol, 310.75 K | 0.0832
in n-butanol, 315.15 K | 0.0909
in n-butanol, 321.75 K | 0.101
in n-butanol, 328.35 K | 0.112
in n-butanol, 333.95 K | 0.125
in n-butanol, 338.15 K | 0.14
in n-butanol, 342.45 K | 0.143
in n-butanol, 348.25 K | 0.16
in n-butanol, 353.45 K | 0.174
in n-butanol, 358.15 K | 0.19
in n-propanol, 278.25 K | 0.0437
in n-propanol, 285.45 K | 0.0521
in n-propanol, 291.35 K | 0.0588
in n-propanol, 298.15 K | 0.068
in n-propanol, 305.75 K | 0.0801
in n-propanol, 311.25 K | 0.088
in n-propanol, 317.75 K | 0.0993
in n-propanol, 322.15 K | 0.105
in n-propanol, 328.05 K | 0.115
in n-propanol, 333.55 K | 0.128
in n-propanol, 339.15 K | 0.138
in n-propanol, 344.85 K | 0.151
in n-propanol, 349.75 K | 0.162
in n-propanol, 353.15 K | 0.176
in n-propanol, 358.15 K | 0.18
in toluene, 287.85 K | 0.00052
in toluene, 293.65 K | 0.000645
in toluene, 297.95 K | 0.000722
in toluene, 302.85 K | 0.000786
in toluene, 307.05 K | 0.000898
in toluene, 311.55 K | 0.000989
in toluene, 313.55 K | 0.00104
in toluene, 317.45 K | 0.00113
in toluene, 325.15 K | 0.00155
in toluene, 337.85 K | 0.00295
in toluene, 342.55 K | 0.00379
in toluene, 348.25 K | 0.00427
in toluene, 360.15 K | 0.00642
in water, 293.15 K | 6.79e-05
in water, 298.15 K | 6.88e-05
in water, 303.15 K | 7.03e-05
in water, 308.05 K | 7.17e-05
in water, 312.65 K | 7.88e-05
in water, 318.15 K | 9.36e-05
in water, 323.15 K | 0.000115
in water, 328.15 K | 0.000149
in water, 333.15 K | 0.0002
in water, 338.15 K | 0.00028
in water, 343.15 K | 0.000409
in water, 348.15 K | 0.000616
in water, 353.15 K | 0.000962
in water, 358.15 K | 0.00155
